Test systems include EKVX NSCLC; LOX IMVI melanoma; MALME-3M melanoma; PC-3 prostate; SR leukemia; T-47D breast; MCF7 breast; RPMI-8226 leukemia; SF-539 CNS; KM20L2 colon.
Assay in all cases: DTP human tumour cell line panel, 48 h

14 compounds from PubChem BioAssay (NCI) can be followed below.

SMILES strings stand for the structures. Values joined by “and” are separate entries in the source; they are usually repeats but may differ in a detail not shown here. Identical values can stand only once.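 All cell lines were grown in 96-well plates and treated with compound for 48 hours. GI50 = concentration required for 50% inhibition of growth. TGI denotes the concentration required for complete inhibition of growth.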 Where only a bound is given, the exact number is not on record here.

As for `C(/C=C/c1ccccc1)=Nc1ccc2c(c1)Cc1ccccc1-2`, the concentration for total growth inhibition (TGI) – broadly, the concentration giving total growth inhibition – in the experiment with EKVX NSCLC was > 100 µM; in the experiment on LOX IMVI melanoma, 63 µM; in the experiment on MALME-3M melanoma, > 100 µM; with PC-3 prostate, > 100 µM; in the experiment with SR leukemia it was 90.4 µM; in the experiment with T-47D breast, > 100 µM.

Turning to `CC(=O)N1N=C(c2ccc3ccccc3c2O)CC1c1cccs1` (stereo not given), the TGI in the experiment with MALME-3M melanoma was > 100 µM; in the experiment with MCF7 breast, > 100 µM; with PC-3 prostate it was > 100 µM; with RPMI-8226 leukemia it was 47.1 µM; in the experiment with SF-539 CNS, 89.2 µM; with SR leukemia, 14.3 µM. Besides, the concentration for total growth inhibition (TGI) in the experiment on T-47D breast is > 100 µM.

With `COc1cc(C2S/C(=C/c3ccccc3)C(=O)N2c2ccc(NC(C)=O)cc2)cc(OC)c1OC` (stereo not given), the TGI in the experiment with EKVX NSCLC was 38.4 µM; with LOX IMVI melanoma, 63.7 µM; with MALME-3M melanoma, 55.6 µM; with MCF7 breast, > 100 µM; with PC-3 prostate, 48.1 µM; with SR leukemia, > 100 µM. The compound further gave a TGI in the experiment on T-47D breast of 55.1 µM.

Turning to `NC(=S)N/N=C/c1nccc2ccccc12`, the TGI is > 100 µM in the experiment on KM20L2 colon; 2.64 µM with LOX IMVI melanoma; 0.476 µM in the experiment with MALME-3M melanoma; > 100 µM in the experiment on RPMI-8226 leukemia; 9.11 µM in the experiment with SF-539 CNS; 11.5 µM with SR leukemia.

With `NC(CSCc1ccc(I)cc1)C(=O)O` (stereo not given), the total growth inhibition concentration (TGI) in the experiment with EKVX NSCLC, in the experiment with LOX IMVI melanoma, with MALME-3M melanoma, with MCF7 breast, with PC-3 prostate and in the experiment with RPMI-8226 leukemia was > 100 µM throughout. In the experiment with T-47D breast, the TGI was > 100 µM.

Turning to `Cc1nc2c(c(=O)[nH]1)S/C(=C(/C#N)c1nc3ccccc3[nH]1)N2c1ccccc1`, the TGI in the experiment on EKVX NSCLC, with KM20L2 colon, in the experiment on MALME-3M melanoma, with RPMI-8226 leukemia, in the experiment with SF-539 CNS and in the experiment with SR leukemia was > 100 µM in each case.

Regarding `c1ccc(N2N=C(c3cccc(Nc4ccncc4)c3)CC2c2ccc3c(c2)OCO3)cc1` (stereo not given), the GI50 (in general, the concentration giving 50% growth inhibition) in the experiment with EKVX NSCLC is 2.66 µM; in the experiment on LOX IMVI melanoma, 1.69 µM; in the experiment with MALME-3M melanoma, 1.57 µM; in the experiment with MCF7 breast it was 1.74 µM; with SF-539 CNS, 1.7 µM; in the experiment on SR leukemia, 0.955 µM. Moreover, the GI50 with T-47D breast was 2.1 µM. Also, the total growth inhibition concentration (TGI) with EKVX NSCLC came to 11 µM; in the experiment on LOX IMVI melanoma it was 3.08 µM; in the experiment with MALME-3M melanoma it was 3.06 µM; in the experiment on MCF7 breast it was 4.25 µM; in the experiment with SF-539 CNS, 3.18 µM; with SR leukemia, 2.89 µM. This compound gave a concentration for total growth inhibition (TGI) in the experiment on T-47D breast of 5.12 µM.

Take `O=C1C(Cl)N(c2cccc(Cl)c2)C1c1c[nH]c2ccccc12` (stereo not given): the TGI in the experiment on EKVX NSCLC, with KM20L2 colon, in the experiment on MALME-3M melanoma, with RPMI-8226 leukemia, in the experiment with SF-539 CNS and in the experiment on SR leukemia was > 100 µM each time.

On to `CC[C@@H]1ON(C)[C@H]2CN(C)C(=O)[C@@H]12`, for which the TGI in the experiment on LOX IMVI melanoma, in the experiment on MCF7 breast, in the experiment on PC-3 prostate, in the experiment with RPMI-8226 leukemia, in the experiment with SR leukemia and in the experiment with T-47D breast was > 100 µM throughout.

Turning to `Nc1ccccc1Nc1ccccc1C(=O)[O-].Nc1ccccc1Nc1ccccc1C(=O)[O-].[Zn+2]`, the TGI with EKVX NSCLC, in the experiment with KM20L2 colon, with MALME-3M melanoma, with RPMI-8226 leukemia and in the experiment with SF-539 CNS was > 100 µM in each case.

On to `COc1ccc(-c2csc(=Nc3ccccc3)n2CCCN(C)C)cc1`, for which the concentration for total growth inhibition (TGI) was 30.2 µM in the experiment on PC-3 prostate, 60.8 µM with RPMI-8226 leukemia, 32 µM with SF-539 CNS and 67.1 µM in the experiment with SR leukemia.

With `COc1cc([C@@H]2c3cc4c(c(O)c3C[C@H]3COC(=O)[C@@H]32)OCO4)cc(OC)c1OC`, the TGI in the experiment on KM20L2 colon is 0.522 µM; with PC-3 prostate it was > 241 µM; in the experiment with RPMI-8226 leukemia it was 27.4 µM and > 241 µM; in the experiment with T-47D breast, > 231 µM. Also, the GI50 with LOX IMVI melanoma is 0.334 µM; in the experiment with MCF7 breast it was 0.0349 µM; in the experiment on PC-3 prostate it was 0.0428 µM and 0.161 µM; in the experiment with SF-539 CNS, 0.065 µM; in the experiment with SR leukemia it was 1.46 µM and 0.812 µM; in the experiment with T-47D breast, 0.324 µM.

On to `C=C(C)C(=O)O[C@H]1CC2=C[C@@H](C[C@@]3(C)O[C@@H]3[C@H]3OC(=O)C(=C)[C@@H]31)OC2=O`, for which the TGI in the experiment on EKVX NSCLC came out at 4.82 µM; with KM20L2 colon it was 10.5 µM; in the experiment with LOX IMVI melanoma, 1.29 µM; in the experiment on MALME-3M melanoma, 5.62 µM; in the experiment with MCF7 breast it was 5.42 µM; in the experiment with RPMI-8226 leukemia, 26.3 µM. Also, the TGI with SF-539 CNS was 8.21 µM. In the experiment with RPMI-8226 leukemia, the GI50 is 0.915 µM.

For the compound `CCOC1=NC(C(F)(F)F)(C(F)(F)F)N=C(N2CCOCC2)O1`, the TGI with EKVX NSCLC, with LOX IMVI melanoma, in the experiment with MCF7 breast, in the experiment on PC-3 prostate, in the experiment with RPMI-8226 leukemia and in the experiment on SF-539 CNS was > 100 µM in each case. Also, the concentration for total growth inhibition (TGI) with SR leukemia and in the experiment with T-47D breast was > 100 µM each time.
